{
  "source": "patent US20020165594A1",
  "about": "“Apparatus and method of photodynamic eradication of organisms utilizing pyrrolnitrin” (Merrill A. Biel, priority 2001, published 2002)",
  "origin": "cited, not measured here",
  "settings": "orally and intravenously in high doses",
  "data": [
    {"smiles": "CN(C)c1ccc2nc3ccc(=[N+](C)C)cc-3sc2c1", "note": "[Methylene blue]", "values": [
      {"measurement": "toxic effects on administration to humans", "value": "without any toxic effects"}
    ]}
  ]
}
